Source: US10118935B2, “Melampomagnolide B dimers” (priority 2014, dated 2018)

Tests used:
UO-31 = test: NCI 60 cell line five dose, Renal Cancer
SF-268 = test: NCI 60 cell line five dose, CNS Cancer
NCI-H522 = test: NCI 60 cell line five dose, Non-Small Cell Lung Cancer
COLO 205 = test: NCI 60 cell line five dose, Colon Cancer
ACHN = test: NCI 60 cell line five dose, Renal Cancer
NCI-H322M = test: NCI 60 cell line five dose, Non-Small Cell Lung Cancer
SK-MEL-28 = test: NCI 60 cell line five dose, Melanoma
SW-620 = test: NCI 60 cell line five dose, Colon Cancer
KM12 = test: NCI 60 cell line five dose, Colon Cancer
K-562 = test: NCI 60 cell line five dose, Leukemia
SR = test: NCI 60 cell line five dose, Leukemia
OVCAR-4 = test: NCI 60 cell line five dose, Ovarian Cancer
MDA-MB-435 = test: NCI 60 cell line five dose, Melanoma
HCC-2998 = test: NCI 60 cell line five dose, Colon Cancer
BT-549 = test: NCI 60 cell line five dose, Breast Cancer
U251 = test: NCI 60 cell line five dose, CNS Cancer
UACC-62 = test: NCI 60 cell line five dose, Melanoma
HCT-15 = test: NCI 60 cell line five dose, Colon Cancer
MALME-3M = test: NCI 60 cell line five dose, Melanoma; conditions: MAL1ME-3M
MDA-MB-231/ATCC = test: NCI 60 cell line five dose, Breast Cancer
SK-MEL-5 = test: NCI 60 cell line five dose, Melanoma
SK-OV-3 = test: NCI 60 cell line five dose, Ovarian Cancer

C=C1C(=O)O[C@H]2[C@H]1CC/C(COC(=O)NCCCCNC(=O)OC/C1=C/CC[C@@]3(C)O[C@H]3[C@H]3OC(=O)C(=C)[C@@H]3CC1)=C\CC[C@@]1(C)O[C@@H]21 [JVM 3-54, bis(((1aR,7aS,10aS,10bS,E)-1a-Methyl-8-methylene-9-oxo-1a,2,3,6,7,7a,8,9,10a,10b-decahydrooxireno[2′,3′:9,10]cyclodeca[1,2-b]furan-5-yl)methyl)butane-1,4-diyldicarbamate]
GI50 (UO-31): 7.61 µM | TGI (UO-31): 20.9 µM | Percent Growth (UO-31; Log10 Concentration −4.0): −95% | Percent Growth (UO-31; Log10 Concentration −5.0): 45% | Percent Growth (UO-31; Log10 Concentration −6.0): 88% | Percent Growth (UO-31; Log10 Concentration −7.0): 84% | Percent Growth (UO-31; Log10 Concentration −8.0): 86% | CC50 (UO-31; read-out: LC50): 47.7 µM | GI50 (SF-268): 3.18 µM | TGI (SF-268): 12.6 µM | Percent Growth (SF-268; Log10 Concentration −4.0): −74% | Percent Growth (SF-268; Log10 Concentration −5.0): 8% | Percent Growth (SF-268; Log10 Concentration −6.0): 92% | Percent Growth (SF-268; Log10 Concentration −7.0): 97% | Percent Growth (SF-268; Log10 Concentration −8.0): 97% | CC50 (SF-268; read-out: LC50): 51 µM | GI50 (NCI-H522): 0.167 µM | TGI (NCI-H522): 0.375 µM | Percent Growth (NCI-H522; Log10 Concentration −4.0): −71% | Percent Growth (NCI-H522; Log10 Concentration −5.0): −75% | Percent Growth (NCI-H522; Log10 Concentration −6.0): −60% | Percent Growth (NCI-H522; Log10 Concentration −7.0): 82% | Percent Growth (NCI-H522; Log10 Concentration −8.0): 95% | CC50 (NCI-H522; read-out: LC50): 0.845 µM | GI50 (COLO 205): 0.466 µM | TGI (COLO 205): 1.8 µM | Percent Growth (COLO 205; Log10 Concentration −4.0): −61% | Percent Growth (COLO 205; Log10 Concentration −5.0): −73% | Percent Growth (COLO 205; Log10 Concentration −6.0): 25% | Percent Growth (COLO 205; Log10 Concentration −7.0): 100% | Percent Growth (COLO 205; Log10 Concentration −8.0): 100% | CC50 (COLO 205; read-out: LC50): 5.79 µM | GI50 (ACHN): 3.44 µM | TGI (ACHN): 12.9 µM | Percent Growth (ACHN; Log10 Concentration −4.0): −91% | Percent Growth (ACHN; Log10 Concentration −5.0): 11% | Percent Growth (ACHN; Log10 Concentration −6.0): 95% | Percent Growth (ACHN; Log10 Concentration −7.0): 97% | Percent Growth (ACHN; Log10 Concentration −8.0): 100% | CC50 (ACHN; read-out: LC50): 39.8 µM | GI50 (NCI-H322M): 12.6 µM | TGI (NCI-H322M): 25.8 µM | Percent Growth (NCI-H322M; Log10 Concentration −4.0): −94% | Percent Growth (NCI-H322M; Log10 Concentration −5.0): 66% | Percent Growth (NCI-H322M; Log10 Concentration −6.0): 104% | Percent Growth (NCI-H322M; Log10 Concentration −7.0): 100% | Percent Growth (NCI-H322M; Log10 Concentration −8.0): 100% | CC50 (NCI-H322M; read-out: LC50): 52.9 µM | GI50 (SK-MEL-28): 0.529 µM | TGI (SK-MEL-28): 2.3 µM | Percent Growth (SK-MEL-28; Log10 Concentration −4.0): −73% | Percent Growth (SK-MEL-28; Log10 Concentration −5.0): −58% | Percent Growth (SK-MEL-28; Log10 Concentration −6.0): 33% | Percent Growth (SK-MEL-28; Log10 Concentration −7.0): 94% | Percent Growth (SK-MEL-28; Log10 Concentration −8.0): 100% | CC50 (SK-MEL-28; read-out: LC50): 8.08 µM | GI50 (SW-620): 0.586 µM | TGI (SW-620): 2.04 µM | Percent Growth (SW-620; Log10 Concentration −4.0): −72% | Percent Growth (SW-620; Log10 Concentration −5.0): −79% | Percent Growth (SW-620; Log10 Concentration −6.0): 35% | Percent Growth (SW-620; Log10 Concentration −7.0): 98% | Percent Growth (SW-620; Log10 Concentration −8.0): 100% | CC50 (SW-620; read-out: LC50): 5.56 µM | GI50 (KM12): 3.18 µM | TGI (KM12): 10.5 µM | Percent Growth (KM12; Log10 Concentration −4.0): −80% | Percent Growth (KM12; Log10 Concentration −5.0): 2% | Percent Growth (KM12; Log10 Concentration −6.0): 99% | Percent Growth (KM12; Log10 Concentration −7.0): 100% | Percent Growth (KM12; Log10 Concentration −8.0): 102% | CC50 (KM12; read-out: LC50): 43.3 µM | GI50 (K-562): 0.665 µM | TGI (K-562): 10.4 µM | Percent Growth (K-562; Log10 Concentration −4.0): −46% | Percent Growth (K-562; Log10 Concentration −5.0): 1% | Percent Growth (K-562; Log10 Concentration −6.0): 40% | Percent Growth (K-562; Log10 Concentration −7.0): 96% | Percent Growth (K-562; Log10 Concentration −8.0): 101% | CC50 (K-562; read-out: LC50): > 100 µM | GI50 (SR): 0.549 µM | TGI (SR): 3.51 µM | Percent Growth (SR; Log10 Concentration −4.0): −34% | Percent Growth (SR; Log10 Concentration −5.0): −29% | Percent Growth (SR; Log10 Concentration −6.0): 35% | Percent Growth (SR; Log10 Concentration −7.0): 94% | Percent Growth (SR; Log10 Concentration −8.0): 93% | CC50 (SR; read-out: LC50): > 100 µM | GI50 (OVCAR-4): 1.77 µM | Percent Growth (OVCAR-4; Log10 Concentration −4.0): −98% | Percent Growth (OVCAR-4; Log10 Concentration −5.0): −5% | Percent Growth (OVCAR-4; Log10 Concentration −6.0): 68% | Percent Growth (OVCAR-4; Log10 Concentration −7.0): 82% | Percent Growth (OVCAR-4; Log10 Concentration −8.0): 93% | CC50 (OVCAR-4; read-out: LC50): 30.5 µM | GI50 (MDA-MB-435): 1.24 µM | TGI (MDA-MB-435): 3.41 µM | Percent Growth (MDA-MB-435; Log10 Concentration −4.0): −97% | Percent Growth (MDA-MB-435; Log10 Concentration −5.0): −53% | Percent Growth (MDA-MB-435; Log10 Concentration −6.0): 60% | Percent Growth (MDA-MB-435; Log10 Concentration −7.0): 82% | Percent Growth (MDA-MB-435; Log10 Concentration −8.0): 100% | CC50 (MDA-MB-435; read-out: LC50): 9.42 µM | GI50 (HCC-2998): 2.35 µM | TGI (HCC-2998): 4.78 µM | Percent Growth (HCC-2998; Log10 Concentration −4.0): −78% | Percent Growth (HCC-2998; Log10 Concentration −5.0): −52% | Percent Growth (HCC-2998; Log10 Concentration −6.0): 110% | Percent Growth (HCC-2998; Log10 Concentration −7.0): 99% | Percent Growth (HCC-2998; Log10 Concentration −8.0): 97% | CC50 (HCC-2998; read-out: LC50): 9.73 µM | GI50 (BT-549): 1.6 µM | TGI (BT-549): 3.63 µM | Percent Growth (BT-549; Log10 Concentration −4.0): −98% | Percent Growth (BT-549; Log10 Concentration −5.0): −62% | Percent Growth (BT-549; Log10 Concentration −6.0): 79% | Percent Growth (BT-549; Log10 Concentration −7.0): 91% | Percent Growth (BT-549; Log10 Concentration −8.0): 100% | GI50 (U251): 2.94 µM | TGI (U251): 9.83 µM | Percent Growth (U251; Log10 Concentration −4.0): −95% | Percent Growth (U251; Log10 Concentration −5.0): −1% | Percent Growth (U251; Log10 Concentration −6.0): 95% | Percent Growth (U251; Log10 Concentration −7.0): 101% | Percent Growth (U251; Log10 Concentration −8.0): 99% | CC50 (U251; read-out: LC50): 33.3 µM | GI50 (UACC-62): 0.753 µM | TGI (UACC-62): 2.5 µM | Percent Growth (UACC-62; Log10 Concentration −4.0): −86% | Percent Growth (UACC-62; Log10 Concentration −5.0): −67% | Percent Growth (UACC-62; Log10 Concentration −6.0): 44% | Percent Growth (UACC-62; Log10 Concentration −7.0): 93% | Percent Growth (UACC-62; Log10 Concentration −8.0): 95% | CC50 (UACC-62; read-out: LC50): 7.06 µM | GI50 (HCT-15): 5.61 µM | TGI (HCT-15): 20.8 µM | Percent Growth (HCT-15; Log10 Concentration −4.0): 79% | Percent Growth (HCT-15; Log10 Concentration −5.0): 37% | Percent Growth (HCT-15; Log10 Concentration −6.0): 90% | Percent Growth (HCT-15; Log10 Concentration −7.0): 94% | Percent Growth (HCT-15; Log10 Concentration −8.0): 96% | CC50 (HCT-15; read-out: LC50): 56.3 µM | GI50 (MALME-3M): 0.452 µM | TGI (MALME-3M): 2.19 µM | Percent Growth (MALME-3M; Log10 Concentration −4.0): −64% | Percent Growth (MALME-3M; Log10 Concentration −5.0): −56% | Percent Growth (MALME-3M; Log10 Concentration −6.0): 29% | Percent Growth (MALME-3M; Log10 Concentration −7.0): 90% | Percent Growth (MALME-3M; Log10 Concentration −8.0): 95% | CC50 (MALME-3M; read-out: LC50): 8.43 µM | GI50 (MDA-MB-231/ATCC): 1.53 µM | TGI (MDA-MB-231/ATCC): 3.24 µM | Percent Growth (MDA-MB-231/ATCC; Log10 Concentration −4.0): −85% | Percent Growth (MDA-MB-231/ATCC; Log10 Concentration −5.0): −76% | Percent Growth (MDA-MB-231/ATCC; Log10 Concentration −6.0): 79% | Percent Growth (MDA-MB-231/ATCC; Log10 Concentration −7.0): 104% | Percent Growth (MDA-MB-231/ATCC; Log10 Concentration −8.0): 103% | GI50 (SK-MEL-5): 3.33 µM | TGI (SK-MEL-5): 11.8 µM | Percent Growth (SK-MEL-5; Log10 Concentration −4.0): −85% | Percent Growth (SK-MEL-5; Log10 Concentration −5.0): 7% | Percent Growth (SK-MEL-5; Log10 Concentration −6.0): 98% | Percent Growth (SK-MEL-5; Log10 Concentration −7.0): 100% | Percent Growth (SK-MEL-5; Log10 Concentration −8.0): 97% | CC50 (SK-MEL-5; read-out: LC50, SK-MEL-6): 41.4 µM | GI50 (SK-OV-3): 12.7 µM | TGI (SK-OV-3): 25.3 µM | Percent Growth (SK-OV-3; Log10 Concentration −4.0): −100% | Percent Growth (SK-OV-3; Log10 Concentration −5.0): 67% | Percent Growth (SK-OV-3; Log10 Concentration −6.0): 107% | Percent Growth (SK-OV-3; Log10 Concentration −7.0): 102% | Percent Growth (SK-OV-3; Log10 Concentration −8.0): 98% | CC50 (SK-OV-3; read-out: LC50): 50.4 µM
